The results in this text go back to PMC5547389, “Structure-activity relationships and molecular docking studies of chromene and chromene based azo chromophores: A novel series of potent antimicrobial and anticancer agents” (EXCLI Journal, 2017).

In assay [1] the test system is caspase-3 and -7. Nature of the assay: Caspase-Glo 3/7 caspase activity assay. As to conditions: compared to control and doxorubicin; MCF-7 and HCT-116; compounds at IC50 concentration, 48 h. The format is cell-based, human. Here is the method:
To measure caspase-3 and -7 activities, a luminescent Caspase-Glo 3/7 assay was performed. HCT116 and MCF-7 cells were seeded onto black 96-well plates at a density of 3,500 cells/well. […] After 48 h a Caspase-Glo 3/7 Assay (Promega) was performed according to the manufacturer's instructions. After adding 100 μL of Caspase 3/7 Glo Reagent, cells were incubated for 2.5 h at room temperature. The luminescence was measured using a multi-plate reader (Synergy 4, BioTek) with an integration time of 1 second per well. The values are the means ± SD of three sets of experiments.
The initial reported assay of 4-aryl-4H-chromene series were identified as apoptosis inducers via caspase activation (Elinson et al., 2010[20]; Sondhi et al., 2010[58]; Thareja et al., 2010[60]; Trinchieri, 2015[61]). Furthermore, it was important to investigate the antiproliferative effect of the novel synthesized compounds 4a, 4b, and 4c using caspase-3 and -7 activities compared to doxorubicin and vehicle control drug in the corresponding cancer cell lines MCF-7 and HCT-116.

For assay [2], the system named is Streptococcus pneumoniae (RCMB 010010). Nature of the assay: MIC by serial dilution method. The class given is cell-based. As to conditions: RCMB010010, Gm+ve, read-out: Minimum inhibitory concentration, MIC, S.P. An outline of the steps: (§1)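 MIC values come from a serial dilution method that followed initial activity screening by agar diffusion in wells. Reference drugs were ampicillin, ciprofloxacin, gentamicin and amphotericin B.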

Assay [3] has as its system Syncephalastrum racemosum (RCMB 05922). Nature of the assay: MIC by serial dilution method. The class given is cell-based. The conditions noted are these: RCMB05922, fungi, read-out: Minimum inhibitory concentration, MIC, S.R. An outline of the steps: as §1
Assay [4] relates to Geotricum candidum (RCMB 05097). Nature of the assay: MIC by serial dilution method. The class given is cell-based. The conditions noted are these: fungi; read-out: Minimum inhibitory concentration, MIC, G.C. An outline of the steps: as §1
Assay [5] relates to Escherichia coli (RCMB 010052). Nature of the assay: MIC by serial dilution method. The class given is cell-based. As to conditions: RCMB010052, Gm-ve, read-out: Minimum inhibitory concentration, MIC, E.C. An outline of the steps: as §1
Assay [6] concerns Bacillus subtilis (RCMB 010067). Nature of the assay: MIC by serial dilution method. As to conditions: RCMB010067, Gm+ve, read-out: Minimum inhibitory concentration, MIC, B.S. The format is cell-based. A digest of the protocol:
as §1

The subject of assay [7] is Aspergillus fumigatus (RCMB 02568). Nature of the assay: MIC by serial dilution method. The format is cell-based. The conditions noted are these: RCMB02568, fungi, read-out: Minimum inhibitory concentration, MIC, A.F. An outline of the steps: as §1
Assay [8] has as its system Pseudomonas aeruginosa (RCMB 010043). Nature of the assay: Well diffusion assay (inhibition zone). The format is cell-based. As to conditions: RCMB010043, 5 mg/mL in DMSO, Gm-ve, read-out: Inhibition Zone (IZ) diameter, P.A. An outline of the steps:
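Agar well diffusion with 10 mm wells, nutrient agar for bacteria and malt extract agar for fungi. Plates were incubated 24-48 h at 37 °C for bacteria or 28 °C for fungi. Inhibition zone diameters were measured in mm, in triplicate.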
A general note: In agar diffusion tests the substance spreads into inoculated agar from a disc or well.

For assay [9], the system named is HCT-116, MCF-7, HEPG-2. Nature of the assay: Cytotoxic screening, statements over the three cell lines. As to conditions: Homo sapiens; HCT-116, MCF-7, HEPG-2 together; read-out: IC50, range over the three cell lines. The format is cell-based. How it is done: Human colon carcinoma (HCT-116), human hepatocellular carcinoma (HEPG-2), adenocarcinomic human alveolar basal epithelial cell (A-549), and human breast adenocarcinoma (MCF-7) cell lines were obtained from the American Type Culture Collection (ATCC, Rockville, MD). The cells were grown on RPMI-1640 medium supplemented with 10 % inactivated fetal calf serum and 50 µg/ml gentamycin. The cells were maintained at 37 °C in a humidified atmosphere with 5 % CO2 and were subcultured two to three times a week. Potential cytotoxicity of the compounds was evaluated on tumor cells using the method of Gangadevi and Muthumary (2007[21]) (Klancnik et al., 2010[36]). The cells were grown as monolayers in growth RPMI-1640. The monolayers of 104 cells adhered at the bottom of the wells in a 96-well microtiter plate incubated for 24 h at 37 °C in a humidified incubator with 5 % CO2. The monolayers were then washed with sterile phosphate buffered saline (0.01 M pH 7.2) and simultaneously the cells were treated with 100 µL from different dilutions of tested sample in fresh maintenance medium and incubated at 37 °C. A control of untreated cells was made in the absence of tested sample. Positive controls containing doxorubicin were also tested as a reference drug for comparison. Six wells were used for each concentration of the test sample. Every 24 hours an observation under the inverted microscope was made. The number of the surviving cells was determined by staining the cells with crystal violet (Mosmann, 1983[42]; Gangadevi and Muthumary, 2007[21]) followed by cell lysing using 33 % glacial acetic acid and reading the absorbance at 590 nm using microplate reader (SunRise, TECAN, Inc, USA) after well mixing. The absorbance values from untreated cells were considered as 100 % proliferation. The number of viable cells was determined using microplate reader as previously mentioned before and the percentage of […] was calculated as [1-(ODt/ODc)] x 100 % where ODt is the mean optical density of wells treated with the tested sample and ODc is the mean optical density of untreated cells. The relation between surviving cells and drug concentration was plotted to get the survival curve of each tumor cell line after treatment with the specified compound. The 50 % inhibitory concentration (IC50), the concentration required to cause toxic effects in 50 % of intact cells, was estimated from graphic plots.
The in vitro cytotoxic activity was performed by MTT assay (Mosmann, 1983[42]; Alley et al., 1988[6]) against three human carcinoma cell lines: Human colon carcinoma (HCT-116), human breast adenocarcinoma (MCF-7), and human hepatocellular carcinoma (HEPG-2).

Converted amounts (≈) assume the structure as drawn.

Usually IC50 stands for the point on the concentration scale where inhibition reaches its midpoint.

Take `N#CC1=C(N)Oc2c(N)cc3ccccc3c2C1c1ccc(Cl)cc1` (stereo not shown) [4b, 3,5-diamino-1-(4-chlorophenyl)-1H-benzo[f]chromene-2-carbonitrile]: the “elevation in the caspase activity” value in assay [1] is reported as 2-3 folds. In addition, the MIC was found to be 0.49 µg/mL (≈ 1.41 µM) in assay [2]; 31.2 µg/mL (≈ 89.8 µM) in [3]; 0.03 µg/mL (≈ 0.0863 µM) in assay [4]; 15.6 µg/mL (≈ 44.9 µM) in assay [5]; 0.007 µg/mL (≈ 0.0201 µM) in assay [6]; 0.24 µg/mL (≈ 0.69 µM) in [7]. In [8], the zone of inhibition at 5000 µg/mL came to 13.1 mm. Further, the IC50 in assay [9] was in the range of 0.3 to 2 µg/mL (≈ 0.863 to 5.75 µM).
Take `N#CC1=C(N)Oc2c(ccc3c(N)cccc23)C1c1ccc(F)cc1` (stereo not shown) [7c]: the IC50 in assay [9] was in the range of 0.3 to 2 µg/mL (≈ 0.905 to 6.04 µM).
Consider `N#CC1=C(N)Oc2c(N)cc3ccccc3c2C1c1ccc(F)cc1` (stereo not shown) [4a, 3,5-diamino-1-(4-fluorophenyl)-1H-benzo[f]chromene-2-carbonitrile], for which the MIC in [2] is 15.6 µg/mL (≈ 47.2 µM); in assay [3] it was 7.81 µg/mL (≈ 23.6 µM); in assay [5], 7.81 µg/mL (≈ 23.6 µM); in assay [6], 3.9 µg/mL (≈ 11.8 µM); in assay [7] it was 15.6 µg/mL (≈ 47.2 µM). In assay [9], the IC50 fell in the range of 0.3 to 2 µg/mL (≈ 0.905 to 6.04 µM).
`COc1ccc(N=Nc2cc3c(cc2O)OC(N)=C(C#N)C3c2ccc(F)cc2)cc1` (stereo not shown) [13b, 2-Amino-4-(4-fluoro-phenyl)-7-hydroxy-6-(4-methoxy-phenylazo)-4H-chromene-3-carbonitrile]: the MIC in assay [2] was determined as 31.2 µg/mL (≈ 75 µM); in assay [3], 62.5 µg/mL (≈ 150 µM); in [4], 31.2 µg/mL (≈ 74.9 µM); in assay [5], 15.6 µg/mL (≈ 37.5 µM); in assay [6], 3.9 µg/mL (≈ 9.37 µM); in [7] it was 62.5 µg/mL (≈ 150 µM). Moreover, the IC50 in assay [9] lay in the range of 2.41 to 5.4 µg/mL (≈ 5.79 to 13 µM).
Turning to `Cc1ccc(C2C(C#N)=C(N)Oc3c(N)cc4ccccc4c32)cc1` (stereo not shown) [4c, 3,5-diamino-1-(p-tolyl)-1H-benzo[f]chromene-2-carbonitrile], in assay [1], the “elevation in the caspase activity” value is recorded as 2-3 folds. Moreover, the MIC in assay [2] turned out to be 7.81 µg/mL (≈ 23.9 µM); in [3], 31.2 µg/mL (≈ 95.5 µM); in [4], 7.81 µg/mL (≈ 23.9 µM); in assay [5], 62.5 µg/mL (≈ 191 µM); in assay [6], 7.81 µg/mL (≈ 23.9 µM); in assay [7], 3.9 µg/mL (≈ 11.9 µM). Further, the IC50 in assay [9] is 0.3 to 2 µg/mL (≈ 0.916 to 6.11 µM).
